From paper PMC3961306, “Comparison of the Cancer Gene Targeting and Biochemical Selectivities of All Targeted Kinase Inhibitors Approved for Clinical Use” (PLoS ONE, 2014)
Like-named read-outs stand apart in the source and are kept apart here.

Legend:
Experiment in all cases: Kinase profiling in a biochemical assay panel (mobility shift assays and ELISA), %-inhibition at 1 μM; selectivity entropy
[1] = target: panel of more than 300 wild-type and mutant kinases (313 kinase panel) (Homo sapiens, UniProt O75116)
[2] = target: panel of more than 300 wild-type and mutant kinases (313 kinase panel) (Homo sapiens, UniProt O94804); conditions: kinase LOK; compound at 1 μM
Chain of panel of more than 300 wild-type and mutant kinases (313 kinase panel) (Homo sapiens, UniProt O94804) (O94804 whole entry, change not shown): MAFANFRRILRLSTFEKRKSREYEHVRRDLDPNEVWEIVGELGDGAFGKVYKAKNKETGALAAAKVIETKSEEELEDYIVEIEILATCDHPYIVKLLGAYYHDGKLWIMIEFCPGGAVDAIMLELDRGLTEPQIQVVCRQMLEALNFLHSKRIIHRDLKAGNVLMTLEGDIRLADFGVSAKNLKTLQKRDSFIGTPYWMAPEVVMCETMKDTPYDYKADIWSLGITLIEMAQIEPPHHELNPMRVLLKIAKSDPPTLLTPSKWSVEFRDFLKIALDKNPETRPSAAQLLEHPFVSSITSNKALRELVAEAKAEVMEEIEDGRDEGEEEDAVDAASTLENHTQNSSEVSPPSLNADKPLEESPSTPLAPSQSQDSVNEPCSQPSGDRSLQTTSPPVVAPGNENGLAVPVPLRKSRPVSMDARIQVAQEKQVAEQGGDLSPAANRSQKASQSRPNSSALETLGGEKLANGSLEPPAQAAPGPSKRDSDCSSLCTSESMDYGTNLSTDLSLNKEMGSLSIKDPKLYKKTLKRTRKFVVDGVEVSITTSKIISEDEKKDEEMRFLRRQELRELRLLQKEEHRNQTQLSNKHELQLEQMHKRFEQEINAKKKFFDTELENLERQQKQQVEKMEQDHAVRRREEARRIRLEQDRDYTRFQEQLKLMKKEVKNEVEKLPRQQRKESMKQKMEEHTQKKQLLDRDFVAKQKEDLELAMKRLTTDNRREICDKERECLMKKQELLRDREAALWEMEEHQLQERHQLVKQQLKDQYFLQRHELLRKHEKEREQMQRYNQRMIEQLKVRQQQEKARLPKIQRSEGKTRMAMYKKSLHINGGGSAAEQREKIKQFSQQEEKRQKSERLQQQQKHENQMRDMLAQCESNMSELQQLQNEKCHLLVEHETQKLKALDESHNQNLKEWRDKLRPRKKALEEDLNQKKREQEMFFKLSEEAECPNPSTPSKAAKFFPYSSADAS

[3] = target: panel of more than 300 wild-type and mutant kinases (313 kinase panel) (Homo sapiens, UniProt P49759); conditions: kinase CLK1; 1 μM compound
Chain of panel of more than 300 wild-type and mutant kinases (313 kinase panel) (Homo sapiens, UniProt P49759) (P49759 whole entry, change not shown): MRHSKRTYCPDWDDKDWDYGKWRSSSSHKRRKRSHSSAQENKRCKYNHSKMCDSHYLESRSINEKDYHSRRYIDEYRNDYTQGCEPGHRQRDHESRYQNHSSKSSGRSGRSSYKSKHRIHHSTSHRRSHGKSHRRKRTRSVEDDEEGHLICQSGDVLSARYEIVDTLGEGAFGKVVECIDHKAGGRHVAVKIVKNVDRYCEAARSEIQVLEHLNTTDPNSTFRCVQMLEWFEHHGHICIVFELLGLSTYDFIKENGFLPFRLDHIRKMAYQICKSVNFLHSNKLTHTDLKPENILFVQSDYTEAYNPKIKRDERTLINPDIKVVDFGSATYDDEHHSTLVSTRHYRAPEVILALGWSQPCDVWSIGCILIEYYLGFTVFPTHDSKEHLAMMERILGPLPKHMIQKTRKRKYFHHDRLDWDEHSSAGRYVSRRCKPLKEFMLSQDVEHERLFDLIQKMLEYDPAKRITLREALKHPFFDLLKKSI

[4] = target: panel of more than 300 wild-type and mutant kinases (313 kinase panel) (Homo sapiens, UniProt P49761); conditions: kinase CLK3; compound at 1 μM
Chain of panel of more than 300 wild-type and mutant kinases (313 kinase panel) (Homo sapiens, UniProt P49761) (P49761 whole entry, change not shown): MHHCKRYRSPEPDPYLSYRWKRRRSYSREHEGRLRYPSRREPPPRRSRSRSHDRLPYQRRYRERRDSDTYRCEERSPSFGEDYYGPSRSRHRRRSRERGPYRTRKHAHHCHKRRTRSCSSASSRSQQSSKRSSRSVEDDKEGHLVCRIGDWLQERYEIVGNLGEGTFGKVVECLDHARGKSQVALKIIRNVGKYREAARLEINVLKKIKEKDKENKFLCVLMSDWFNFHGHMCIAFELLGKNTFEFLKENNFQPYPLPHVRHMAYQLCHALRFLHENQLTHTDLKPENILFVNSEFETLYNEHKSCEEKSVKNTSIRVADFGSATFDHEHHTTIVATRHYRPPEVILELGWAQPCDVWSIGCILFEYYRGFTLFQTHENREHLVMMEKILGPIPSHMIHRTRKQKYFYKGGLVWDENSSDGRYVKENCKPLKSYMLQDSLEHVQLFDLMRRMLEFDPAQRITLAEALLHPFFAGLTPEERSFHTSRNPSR

[5] = target: T1, panel of more than 300 wild-type and mutant kinases (313 kinase panel) (Homo sapiens, UniProt Q12852); conditions: kinase DLK; compound at 1 μM
T1 sequence (Q12852 1-859): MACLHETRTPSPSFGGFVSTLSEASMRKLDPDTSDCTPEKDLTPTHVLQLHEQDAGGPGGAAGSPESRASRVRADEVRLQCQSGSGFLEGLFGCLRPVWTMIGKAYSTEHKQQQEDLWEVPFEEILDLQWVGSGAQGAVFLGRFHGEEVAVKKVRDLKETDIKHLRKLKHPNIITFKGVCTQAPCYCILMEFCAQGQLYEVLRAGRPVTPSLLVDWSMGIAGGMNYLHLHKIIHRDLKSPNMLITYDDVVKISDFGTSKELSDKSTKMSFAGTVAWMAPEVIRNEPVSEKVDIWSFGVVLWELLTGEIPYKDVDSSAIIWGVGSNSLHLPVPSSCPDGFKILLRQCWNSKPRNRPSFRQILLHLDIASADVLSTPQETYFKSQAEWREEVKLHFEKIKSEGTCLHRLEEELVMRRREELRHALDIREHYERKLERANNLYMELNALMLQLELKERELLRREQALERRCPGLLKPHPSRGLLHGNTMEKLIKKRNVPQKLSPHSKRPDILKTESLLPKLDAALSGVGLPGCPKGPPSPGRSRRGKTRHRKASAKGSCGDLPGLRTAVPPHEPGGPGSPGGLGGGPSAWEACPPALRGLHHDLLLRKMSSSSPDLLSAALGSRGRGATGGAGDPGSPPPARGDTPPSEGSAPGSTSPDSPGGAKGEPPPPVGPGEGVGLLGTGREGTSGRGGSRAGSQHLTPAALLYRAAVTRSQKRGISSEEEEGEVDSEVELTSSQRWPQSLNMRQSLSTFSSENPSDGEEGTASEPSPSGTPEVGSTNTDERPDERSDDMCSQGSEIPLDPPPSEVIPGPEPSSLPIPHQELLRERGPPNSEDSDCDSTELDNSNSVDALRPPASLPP

[6] = target: panel of more than 300 wild-type and mutant kinases (313 kinase panel) (Homo sapiens, UniProt Q13627)
[7] = target: panel of more than 300 wild-type and mutant kinases (313 kinase panel) (Homo sapiens, UniProt Q16654); conditions: kinase PDHK4; 1 μM
[8] = target: T2, panel of more than 300 wild-type and mutant kinases (313 kinase panel) (Homo sapiens, UniProt Q96PY6)
T2 sequence (Q96PY6 1-1258): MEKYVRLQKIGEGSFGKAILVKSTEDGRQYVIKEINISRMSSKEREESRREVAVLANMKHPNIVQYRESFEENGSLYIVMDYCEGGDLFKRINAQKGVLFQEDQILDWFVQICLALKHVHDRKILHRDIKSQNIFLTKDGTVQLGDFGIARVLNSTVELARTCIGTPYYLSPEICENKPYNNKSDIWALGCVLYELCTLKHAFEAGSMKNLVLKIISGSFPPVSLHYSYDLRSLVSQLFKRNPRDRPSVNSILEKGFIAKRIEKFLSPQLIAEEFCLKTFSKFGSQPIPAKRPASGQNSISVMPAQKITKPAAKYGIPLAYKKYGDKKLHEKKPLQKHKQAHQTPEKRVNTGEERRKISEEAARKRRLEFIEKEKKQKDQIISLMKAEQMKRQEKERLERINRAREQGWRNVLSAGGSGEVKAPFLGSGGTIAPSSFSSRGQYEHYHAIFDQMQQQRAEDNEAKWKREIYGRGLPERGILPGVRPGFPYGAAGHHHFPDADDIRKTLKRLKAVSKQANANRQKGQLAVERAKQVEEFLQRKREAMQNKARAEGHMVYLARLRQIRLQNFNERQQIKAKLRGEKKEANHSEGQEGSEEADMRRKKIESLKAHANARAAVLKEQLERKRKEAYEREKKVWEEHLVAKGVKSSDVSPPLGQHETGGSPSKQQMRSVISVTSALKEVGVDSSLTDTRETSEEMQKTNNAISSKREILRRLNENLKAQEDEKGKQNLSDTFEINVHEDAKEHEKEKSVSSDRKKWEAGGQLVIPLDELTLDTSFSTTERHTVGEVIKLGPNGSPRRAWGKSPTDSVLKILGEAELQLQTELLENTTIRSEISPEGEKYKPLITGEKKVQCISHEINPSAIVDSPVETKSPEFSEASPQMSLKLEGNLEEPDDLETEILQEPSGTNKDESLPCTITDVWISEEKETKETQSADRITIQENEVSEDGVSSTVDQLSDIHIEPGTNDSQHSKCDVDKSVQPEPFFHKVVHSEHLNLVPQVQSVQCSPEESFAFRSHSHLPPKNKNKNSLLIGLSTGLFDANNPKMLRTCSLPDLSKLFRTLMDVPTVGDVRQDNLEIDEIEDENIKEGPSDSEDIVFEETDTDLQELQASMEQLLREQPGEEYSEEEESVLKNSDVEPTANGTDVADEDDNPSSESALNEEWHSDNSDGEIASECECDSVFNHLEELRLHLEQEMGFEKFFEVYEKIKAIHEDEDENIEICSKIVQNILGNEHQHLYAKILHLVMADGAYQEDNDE

[9] = kinase DYRK1A, compound at 1 μM

Row | Compound | %-inhibition of ROCK2 ([1]; kinase ROCK2, 1 μM) | %-inhibition of LOK [2] | %-inhibition, CLK1 [3] | %-inhibition of CLK3 [4] | %-inhibition of DLK [5] | %-inhibition of DYRK1A [6, 9] | %-inhibition of PDHK4 [7] | %-inhibition of NEK1 ([8]; kinase NEK1, 1 μM) | %-inhibition of ROCK2 ([1]; 1 µM) | %-inhibition of DYRK1A [6] | %-inhibition of NEK1 ([8]; 1 µM)
1 | CC(=O)Nc1cccc(-n2c(=O)n(C3CC3)c(=O)c3c(Nc4ccc(I)cc4F)n(C)c(=O)c(C)c32)c1 [trametinib] | 3% | 12% | -0.618% | -0.0684% | -2.85% | -1.23% | -1.65% | -5% |  |  | 
2 | COc1cc2c(Nc3ccc(Br)cc3F)ncnc2cc1OCC1CCN(C)CC1 [vandetanib] | -0.708% | 92% | 14% | -15% | 20% | -11% | -1.83% | -8% |  |  | 
3 | CS(=O)(=O)CCNCc1ccc(-c2ccc3ncnc(Nc4ccc(OCc5cccc(F)c5)c(Cl)c4)c3c2)o1 [lapatinib] |  | 17% | 14% | 0.469% | -3.44% |  | -4.31% |  | -2% | 3.25% | 1.5%
4 | CO[C@H]1C[C@@H]2CC[C@@H](C)[C@@](O)(O2)C(=O)C(=O)N2CCCC[C@H]2C(=O)O[C@H]([C@H](C)C[C@@H]2CC[C@@H](OCCO)[C@H](OC)C2)CC(=O)[C@H](C)/C=C(\C)[C@@H](O)[C@@H](OC)C(=O)[C@H](C)C[C@H](C)/C=C/C=C/C=C/1C [everolimus] | -5.49% | -9% | -7.39% | -9% | -5% | -11% | 2% | -7% |  |  | 
5 | CCN(CC)CCNC(=O)c1c(C)[nH]c(/C=C2\C(=O)Nc3ccc(F)cc32)c1C [sunitinib] |  | 92% |  |  |  |  |  |  |  |  | 
6 | O=S(=O)(c1cccc2cnccc12)N1CCCNCC1 [fasudil] |  | 11% | 32% | -0.753% | -11% | 4.23% | 4.74% | -6.36% |  |  | 
7 | CN(C)C/C=C/C(=O)Nc1cc2c(Nc3ccc(F)c(Cl)c3)ncnc2cc1O[C@H]1CCOC1 [afatinib] |  |  |  |  |  |  | -3.28% |  |  |  | 
8 | Cc1ccc(Nc2nccc(N(C)c3ccc4c(C)n(C)nc4c3)n2)cc1S(N)(=O)=O [pazopanib] | -0.78% | 70% | 7.57% | 0.791% | 40% |  | -1% | 2.41% |  |  | 
